The record followed here is ChEMBL document CHEMBL4002566, “S-substituted 3,5-dinitrophenyl 1,3,4-oxadiazole-2-thiols and tetrazole-5-thiols as highly efficient antitubercular agents” (Eur J Med Chem, 2017).

In general, MIC refers to the lowest concentration found to suppress growth.

Values after ≈ are worked out from the molar mass of the structure shown.

Type in all cases: functional
Assay [1] relates to Mycobacterium tuberculosis. Description: Antimycobacterial activity against multidrug-resistant Mycobacterium tuberculosis Praha 131 after 14 days by micromethod.
In assay [2] the test system is Mycobacterium tuberculosis. Description: Antimycobacterial activity against multidrug-resistant Mycobacterium tuberculosis 9449/2007 after 21 days by micromethod. The settings on record: 9449/2007, 504 h.
In assay [3] the test system is Mycobacterium tuberculosis. Description: Antimycobacterial activity against multidrug-resistant Mycobacterium tuberculosis Praha 4 after 21 days by micromethod. The settings on record: Praha 4, 504 h.
In assay [4] the test system is Mycobacterium tuberculosis. Kind of assay: Antimycobacterial activity against multidrug-resistant Mycobacterium tuberculosis Praha 4 after 14 days by micromethod.
Assay [5] deals with Mycobacterium tuberculosis. Description: Antimycobacterial activity against multidrug-resistant Mycobacterium tuberculosis Praha 1 after 21 days by micromethod. The settings on record: Praha 1, 504 h.
Assay [6] concerns Mycobacterium tuberculosis. Kind of assay: Antimycobacterial activity against multidrug-resistant Mycobacterium tuberculosis 234/2005 after 14 days by micromethod.
Assay [7] relates to Mycobacterium tuberculosis. Description: Antimycobacterial activity against multidrug-resistant Mycobacterium tuberculosis 7357/1998 after 21 days by micromethod. The settings on record: 7357/1998, 504 h.
In assay [8] the test system is Mycobacterium tuberculosis. Description: Antimycobacterial activity against multidrug-resistant Mycobacterium tuberculosis 8666/2010 after 14 days by micromethod.
Assay [9] concerns Mycobacterium tuberculosis. Description: Antimycobacterial activity against multidrug-resistant Mycobacterium tuberculosis Praha 1 after 14 days by micromethod.
Assay [10] deals with Mycobacterium tuberculosis. Kind of assay: Antimycobacterial activity against multidrug-resistant Mycobacterium tuberculosis 7357/1998 after 14 days by micromethod.
Assay [11] relates to Mycobacterium tuberculosis. Description: Antimycobacterial activity against multidrug-resistant Mycobacterium tuberculosis 8666/2010 after 21 days by micromethod. The following applies: 8666/2010, 504 h.
Assay [12] relates to Mycobacterium tuberculosis. Description: Antimycobacterial activity against multidrug-resistant Mycobacterium tuberculosis Praha 131 after 21 days by micromethod. The settings on record: Praha 131, 504 h.
The test system of assay [13] is Mycobacterium tuberculosis. Kind of assay: Antimycobacterial activity against multidrug-resistant Mycobacterium tuberculosis 234/2005 after 21 days by micromethod. The settings on record: 234/2005, 504 h.
Assay [14] concerns Mycobacterium tuberculosis. Kind of assay: Antimycobacterial activity against multidrug-resistant Mycobacterium tuberculosis 9449/2007 after 14 days by micromethod.

Regarding `COc1ccc(CSc2nnc(-c3cc([N+](=O)[O-])cc([N+](=O)[O-])c3)o2)cc1`, the MIC was 0.03 µM (≈ 0.0117 µg/mL) in assay [1] (Praha 131, 336 h); 0.06 µM (≈ 0.0233 µg/mL) in assay [2]; 0.06 µM (≈ 0.0233 µg/mL) in assay [3]; 0.03 µM (≈ 0.0117 µg/mL) in assay [4] (Praha 4, 336 h); 0.06 µM (≈ 0.0233 µg/mL) in [5]; 0.03 µM (≈ 0.0117 µg/mL) in [6] (234/2005, 336 h). Also, the minimal inhibitory concentration (MIC) in assay [7] was found to be 0.06 µM (≈ 0.0233 µg/mL); in assay [8] (8666/2010, 336 h), 0.03 µM (≈ 0.0117 µg/mL); in assay [9] (Praha 1, 336 h), 0.03 µM (≈ 0.0117 µg/mL); in [10] (7357/1998, 336 h) it was 0.03 µM (≈ 0.0117 µg/mL); in [11], 0.06 µM (≈ 0.0233 µg/mL); in assay [12] it was 0.06 µM (≈ 0.0233 µg/mL). Further, the MIC is 0.06 µM (≈ 0.0233 µg/mL) in assay [13] and 0.03 µM (≈ 0.0117 µg/mL) in [14] (9449/2007, 336 h).
For the compound `CC(C)/N=c1\cc2n(-c3ccc(Cl)cc3)c3ccccc3nc-2cc1Nc1ccc(Cl)cc1` [CLOFAZIMINE], the MIC in assay [1] (Praha 131, 336 h) stood at 0.25 µM (≈ 0.118 µg/mL); in assay [4] (Praha 4, 336 h), 0.5 µM (≈ 0.237 µg/mL); in [6] (234/2005, 336 h), 0.125 µM (≈ 0.0592 µg/mL); in assay [8] (8666/2010, 336 h), 2 µM (≈ 0.947 µg/mL); in assay [9] (Praha 1, 336 h) it was 0.5 µM (≈ 0.237 µg/mL); in assay [10] (7357/1998, 336 h) it was 0.125 µM (≈ 0.0592 µg/mL). In [14] (9449/2007, 336 h), this compound came in with an MIC of 0.125 µM (≈ 0.0592 µg/mL).
With `O=[N+]([O-])c1cc(-c2nnc(SCc3ccc(Cl)cc3)o2)cc([N+](=O)[O-])c1`, the MIC in assay [1] (Praha 131, 336 h) came out at 0.03 µM (≈ 0.0118 µg/mL); in [2] it was 0.06 µM (≈ 0.0236 µg/mL); in [3], 0.06 µM (≈ 0.0236 µg/mL); in assay [4] (Praha 4, 336 h) it was 0.03 µM (≈ 0.0118 µg/mL); in assay [5] it was 0.06 µM (≈ 0.0236 µg/mL); in assay [6] (234/2005, 336 h) it was 0.03 µM (≈ 0.0118 µg/mL). In addition, the minimum inhibitory concentration (MIC) stood at 0.06 µM (≈ 0.0236 µg/mL) in assay [7]; 0.03 µM (≈ 0.0118 µg/mL) in assay [8] (8666/2010, 336 h); 0.03 µM (≈ 0.0118 µg/mL) in [9] (Praha 1, 336 h); 0.03 µM (≈ 0.0118 µg/mL) in assay [10] (7357/1998, 336 h); 0.06 µM (≈ 0.0236 µg/mL) in [11]; 0.06 µM (≈ 0.0236 µg/mL) in assay [12]. Besides, the minimum inhibitory concentration (MIC) in [13] turned out to be 0.06 µM (≈ 0.0236 µg/mL); in assay [14] (9449/2007, 336 h), 0.03 µM (≈ 0.0118 µg/mL).
In the case of GENTAMICIN, the MIC in assay [1] is above 8 µM; in assay [4], 0.5 µM; in [6], 0.25 µM; in assay [8], 2 µM; in [9], 1 µM; in [10] it was 1 µM. In assay [14], this compound showed an MIC of 1 µM.
For the compound `NCC[C@H](O)C(=O)N[C@@H]1C[C@H](N)[C@@H](O[C@H]2O[C@H](CN)[C@@H](O)[C@H](O)[C@H]2O)[C@H](O)[C@H]1O[C@H]1O[C@H](CO)[C@@H](O)[C@H](N)[C@H]1O` [AMIKACIN], the MIC in assay [1] (Praha 131, 336 h) was above 32 µM; in [4] (Praha 4, 336 h), 1 µM (≈ 0.586 µg/mL); in assay [6] (234/2005, 336 h), 0.5 µM (≈ 0.293 µg/mL); in assay [8] (8666/2010, 336 h) it was 2 µM (≈ 1.17 µg/mL); in assay [9] (Praha 1, 336 h), 0.5 µM (≈ 0.293 µg/mL); in [10] (7357/1998, 336 h), 1 µM (≈ 0.586 µg/mL). In [14] (9449/2007, 336 h), this compound showed an MIC of 0.5 µM (≈ 0.293 µg/mL).
For the compound `O=[N+]([O-])c1cc(-c2nnc(SCc3ccc(Cl)c(Cl)c3)o2)cc([N+](=O)[O-])c1`, the MIC in assay [1] (Praha 131, 336 h) was determined as 0.03 µM (≈ 0.0128 µg/mL); in assay [2], 0.03 µM (≈ 0.0128 µg/mL); in assay [3], 0.03 µM (≈ 0.0128 µg/mL); in [4] (Praha 4, 336 h), 0.03 µM (≈ 0.0128 µg/mL); in assay [5] it was 0.03 µM (≈ 0.0128 µg/mL); in [6] (234/2005, 336 h), 0.03 µM (≈ 0.0128 µg/mL). Besides, the MIC was 0.03 µM (≈ 0.0128 µg/mL) in [7]; 0.03 µM (≈ 0.0128 µg/mL) in [8] (8666/2010, 336 h); 0.03 µM (≈ 0.0128 µg/mL) in assay [9] (Praha 1, 336 h); 0.03 µM (≈ 0.0128 µg/mL) in [10] (7357/1998, 336 h); 0.03 µM (≈ 0.0128 µg/mL) in [11]; 0.03 µM (≈ 0.0128 µg/mL) in assay [12]. Moreover, the MIC in [13] was determined as 0.03 µM (≈ 0.0128 µg/mL); in [14] (9449/2007, 336 h), 0.03 µM (≈ 0.0128 µg/mL).
As for `O=[N+]([O-])c1cc(-n2nnnc2SCc2ccc(Cl)c(Cl)c2)cc([N+](=O)[O-])c1`, the MIC stood at 0.25 µM (≈ 0.107 µg/mL) in assay [1] (Praha 131, 336 h); 0.25 µM (≈ 0.107 µg/mL) in [2]; 0.25 µM (≈ 0.107 µg/mL) in assay [3]; 0.25 µM (≈ 0.107 µg/mL) in assay [4] (Praha 4, 336 h); 0.5 µM (≈ 0.214 µg/mL) in [5]; 0.25 µM (≈ 0.107 µg/mL) in [6] (234/2005, 336 h). Further, the MIC in assay [7] amounted to 0.5 µM (≈ 0.214 µg/mL); in assay [8] (8666/2010, 336 h) it was 0.25 µM (≈ 0.107 µg/mL); in assay [9] (Praha 1, 336 h), 0.25 µM (≈ 0.107 µg/mL); in assay [10] (7357/1998, 336 h), 0.25 µM (≈ 0.107 µg/mL); in [11] it was 0.25 µM (≈ 0.107 µg/mL); in assay [12] it was 0.5 µM (≈ 0.214 µg/mL). Further, the MIC in assay [13] was 0.25 µM (≈ 0.107 µg/mL); in assay [14] (9449/2007, 336 h) it was 0.25 µM (≈ 0.107 µg/mL).
For the compound `CN[C@@H]1[C@H](O[C@H]2[C@H](O[C@H]3[C@H](O)[C@@H](O)[C@H](N=C(N)N)[C@@H](O)[C@@H]3N=C(N)N)O[C@@H](C)[C@]2(O)C=O)O[C@@H](CO)[C@H](O)[C@H]1O` [STREPTOMYCIN], the MIC in assay [1] (Praha 131, 336 h) was above 32 µM; in [4] (Praha 4, 336 h), above 32 µM; in assay [6] (234/2005, 336 h), 32 µM (≈ 18.6 µg/mL); in assay [8] (8666/2010, 336 h) it was above 32 µM; in [9] (Praha 1, 336 h), 16 µM (≈ 9.31 µg/mL); in assay [10] (7357/1998, 336 h) it was above 32 µM. For the same compound, in [14] (9449/2007, 336 h), the MIC is above 32 µM.
